This is an account of results in PubChem BioAssay AID1259407 (Chemical Carcinogenesis Research Information System (CCRIS), 2018).

This series concerns CCRIS mutagenicity, Ames/micronucleus/aberration tests. Put plainly: CCRIS mutagenicity studies.
Where [1] appears, read: Test System: AMES SALMONELLA TYPHIMURIUM, Strain/Indicator: TA97A, Metabolic Activation: NONE, Method: STANDARD PLATE.
Setting [2] is: Test System: AMES SALMONELLA TYPHIMURIUM, Strain/Indicator: TA100, Metabolic Activation: NONE, Method: STANDARD PLATE.
Setting [3] is: Test System: AMES SALMONELLA TYPHIMURIUM, Strain/Indicator: TA98, Metabolic Activation: NONE, Method: STANDARD PLATE.
[4] abbreviates: Test System: AMES SALMONELLA TYPHIMURIUM, Strain/Indicator: TA98, Metabolic Activation: RAT, LIVER, S-9, AROCLOR 1254, Method: STANDARD PLATE.
Where [5] appears, read: Test System: AMES SALMONELLA TYPHIMURIUM, Strain/Indicator: TA100, Metabolic Activation: RAT, LIVER, S-9, AROCLOR 1254, Method: STANDARD PLATE.

Active and inactive are the calls of the source. How the calls were made is not given here.

For `N`, the mutagenic call runs as follows: (End Point: IN VIVO MICRONUCLEUS, Test System: BONE MARROW POLYCHROMATIC ERYTHROCYTES, Species: MOUSE, Strain/Sex: DDY/MALE, Route: IP) “inactive; negative”; (Test System: AMES SALMONELLA TYPHIMURIUM, Strain/Indicator: TA98, Metabolic Activation: NONE) “inactive; negative”; (Test System: AMES SALMONELLA TYPHIMURIUM, Strain/Indicator: TA98, Metabolic Activation: NONE, Method: PREINCUBATION) “inactive; negative”; (Test System: AMES SALMONELLA TYPHIMURIUM, Strain/Indicator: TA98, Metabolic Activation: RAT, LIVER, S-9, KC 500) “inactive; negative”; (Test System: AMES SALMONELLA TYPHIMURIUM, Strain/Indicator: TA98, Metabolic Activation: RAT, LIVER, S-9, KC 500, Method: PREINCUBATION) “inactive; negative”; (Test System: AMES SALMONELLA TYPHIMURIUM, Strain/Indicator: TA100, Metabolic Activation: NONE) “inactive; negative”. The mutagenic call was “inactive; negative” (Test System: AMES SALMONELLA TYPHIMURIUM, Strain/Indicator: TA100, Metabolic Activation: NONE, Method: PREINCUBATION); “inactive; negative” (Test System: AMES SALMONELLA TYPHIMURIUM, Strain/Indicator: TA100, Metabolic Activation: RAT, LIVER, S-9, KC 500); “inactive; negative” (Test System: AMES SALMONELLA TYPHIMURIUM, Strain/Indicator: TA100, Metabolic Activation: RAT, LIVER, S-9, KC 500, Method: PREINCUBATION); “inactive; negative” (Test System: AMES SALMONELLA TYPHIMURIUM, Strain/Indicator: TA1535, Metabolic Activation: NONE); “inactive; negative” (Test System: AMES SALMONELLA TYPHIMURIUM, Strain/Indicator: TA1535, Metabolic Activation: NONE, Method: PREINCUBATION); “inactive; negative” (Test System: AMES SALMONELLA TYPHIMURIUM, Strain/Indicator: TA1535, Metabolic Activation: RAT, LIVER, S-9, KC 500). The mutagenic call was “inactive; negative” (Test System: AMES SALMONELLA TYPHIMURIUM, Strain/Indicator: TA1535, Metabolic Activation: RAT, LIVER, S-9, KC 500, Method: PREINCUBATION); “inactive; negative” (Test System: AMES SALMONELLA TYPHIMURIUM, Strain/Indicator: TA1537, Metabolic Activation: NONE); “inactive; negative” (Test System: AMES SALMONELLA TYPHIMURIUM, Strain/Indicator: TA1537, Metabolic Activation: NONE, Method: PREINCUBATION); “inactive; negative” (Test System: AMES SALMONELLA TYPHIMURIUM, Strain/Indicator: TA1537, Metabolic Activation: RAT, LIVER, S-9, KC 500); “inactive; negative” (Test System: AMES SALMONELLA TYPHIMURIUM, Strain/Indicator: TA1537, Metabolic Activation: RAT, LIVER, S-9, KC 500, Method: PREINCUBATION); “inactive; negative” (Test System: AMES SALMONELLA TYPHIMURIUM, Strain/Indicator: TA1538, Metabolic Activation: NONE). Also, the mutagenic call reads like this: (Test System: AMES SALMONELLA TYPHIMURIUM, Strain/Indicator: TA1538, Metabolic Activation: NONE, Method: PREINCUBATION) “inactive; negative”; (Test System: AMES SALMONELLA TYPHIMURIUM, Strain/Indicator: TA1538, Metabolic Activation: RAT, LIVER, S-9, KC 500) “inactive; negative”; (Test System: AMES SALMONELLA TYPHIMURIUM, Strain/Indicator: TA1538, Metabolic Activation: RAT, LIVER, S-9, KC 500, Method: PREINCUBATION) “inactive; negative”; (Test System: E. COLI, Strain/Indicator: WP2 UVRA, Metabolic Activation: NONE) “inactive; negative”; (Test System: E. COLI, Strain/Indicator: WP2 UVRA, Metabolic Activation: NONE, Method: PREINCUBATION) “inactive; negative”; (Test System: E. COLI, Strain/Indicator: WP2 UVRA, Metabolic Activation: RAT, LIVER, S-9, KC 500) “inactive; negative”. For the same molecule, the mutagenic call (Test System: E. COLI, Strain/Indicator: WP2 UVRA, Metabolic Activation: RAT, LIVER, S-9, KC 500, Method: PREINCUBATION) was “inactive; negative”.
`CCN[C@H](C)C[C@@H](C)NCC.[Cl-].[Cl-].[Pt+2]`: the mutagenic call was “inactive; negative” under setting [1] and “inactive; negative” under setting [2].
For the molecule `COc1ccccc1/C=C/C=C(/C#N)c1ccc(Br)cc1`, the mutagenic call under setting [1] was “active; positive”.
For the molecule `O=C(C(Cl)Cl)C(Cl)(Cl)Cl`, the mutagenic call is “active; positive” under setting [3] and “active; positive” under setting [2].
Regarding `O=PO.O=PO.[Mn+2]`, the mutagenic call is, setting by setting: under setting [3], “inactive; negative”; under setting [4], “inactive; negative”; under setting [2], “inactive; negative”; under setting [5], “inactive; negative”; (Test System: AMES SALMONELLA TYPHIMURIUM, Strain/Indicator: TA1535, Metabolic Activation: NONE, Method: STANDARD PLATE) “inactive; negative”; (Test System: AMES SALMONELLA TYPHIMURIUM, Strain/Indicator: TA1535, Metabolic Activation: RAT, LIVER, S-9, AROCLOR 1254, Method: STANDARD PLATE) “inactive; negative”. The mutagenic call reads like this: (Test System: AMES SALMONELLA TYPHIMURIUM, Strain/Indicator: TA1537, Metabolic Activation: NONE, Method: STANDARD PLATE) “inactive; negative”; (Test System: AMES SALMONELLA TYPHIMURIUM, Strain/Indicator: TA1537, Metabolic Activation: RAT, LIVER, S-9, AROCLOR 1254, Method: STANDARD PLATE) “inactive; negative”; (Test System: AMES SALMONELLA TYPHIMURIUM, Strain/Indicator: TA1538, Metabolic Activation: NONE, Method: STANDARD PLATE) “inactive; negative”; (Test System: AMES SALMONELLA TYPHIMURIUM, Strain/Indicator: TA1538, Metabolic Activation: RAT, LIVER, S-9, AROCLOR 1254, Method: STANDARD PLATE) “inactive; negative”; (Test System: E. COLI, Strain/Indicator: WP2, Metabolic Activation: NONE, Method: STANDARD PLATE) “inactive; negative”; (Test System: E. COLI, Strain/Indicator: WP2, Metabolic Activation: RAT, LIVER, S-9, AROCLOR 1254, Method: STANDARD PLATE) “inactive; negative”.
In the case of `CC(=O)O[C@H]1C[C@@H]2[C@@]3(C)CCCC(C)(C)[C@@H]3CC[C@@]2(C)[C@@H]2CC=C(C=O)[C@H](C=O)[C@@]12C`, the mutagenic call reads like this: under setting [3], “inactive; negative”; under setting [2], “inactive; negative”; (Test System: AMES SALMONELLA TYPHIMURIUM, Strain/Indicator: TA2637, Metabolic Activation: NONE, Method: STANDARD PLATE) “inactive; negative”.
On to `Clc1ccc(Cl)nc1`, for which the mutagenic call is, setting by setting: (Test System: AMES SALMONELLA TYPHIMURIUM, Strain/Indicator: TA97, Metabolic Activation: NONE, Method: STANDARD PLATE) “inactive; negative”; (Test System: AMES SALMONELLA TYPHIMURIUM, Strain/Indicator: TA97, Metabolic Activation: RAT, LIVER, S-9, AROCLOR 1254, Method: STANDARD PLATE) “inactive; negative”; under setting [3], “inactive; negative”; under setting [4], “inactive; negative”; under setting [2], “inactive; negative”; under setting [5], “inactive; negative”. Further, the mutagenic call is “inactive; negative” (Test System: AMES SALMONELLA TYPHIMURIUM, Strain/Indicator: TA102, Metabolic Activation: NONE, Method: STANDARD PLATE) and “inactive; negative” (Test System: AMES SALMONELLA TYPHIMURIUM, Strain/Indicator: TA102, Metabolic Activation: RAT, LIVER, S-9, AROCLOR 1254, Method: STANDARD PLATE).
